Experiments:
[1] = system: tumour vascular permeability; test: DCE-MRI of tumour vascular permeability; assay type: in vivo, human; details: for increase in leakage space (Ve): final scan (median 35 days), soft-tissue sarcoma patient
Experimental: All patients were asked to have a baseline DCE-MRI examination within the 7 days prior to receiving the study compound under study conditions as described above. Follow-up scans were performed on day 1 and then after 4 weeks of therapy. After the first three patients' examination, the protocol was amended to day 1, 2 weeks, 6 weeks and 6 weekly thereafter if the patient remained on study. All examinations were performed on a 1.5 T MRI system (Vision, Siemens Medical Systems, Erlangen, Germany) approximately 4 h after the commencement of the treatment infusion.
The image collection protocol comprised routine orthogonal T1- and T2-weighted images taken through the previously identified target lesion, to allow localisation and bi-dimensional tumour measurement. The dynamic imaging used a five-slice saturation recovery turbo fast low-angle shot sequence (SRTF) taken through the centre of the target lesion. Proton density-weighted images were acquired, followed by a series of T1-weighted images employing the same gain and image scaling factors. The sequential T1-weighted images were acquired every 9 s for 6.3 min (42 time points).
Gadopentetate dimeglumine (Magnevist Schering Health Care Limited, Burgess Hill, Sussex, UK) was injected intravenously using a mechanical power injector, through a peripherally placed cannula. This contrast was administered as a bolus after the third baseline data point was acquired at a dose of 0.1 mmol kg^−1 body weight. The use of the mechanical power injector allowed the contrast to be delivered within 10 s. The contrast injection was followed by a 20 ml flush of normal saline.
Using the resultant scanned images, two trained observers (AP, CH) blinded to the clinical outcome of the patients evaluated the patterns of enhancement within a designated region of interest. Contrast medium kinetic parameters were then derived for each pixel using MR Imaging Workbench software®. Quantitative and semiquantitative statistical analysis was then performed on these parameters using StatsDirect software (Research Solutions, Cambridge, UK).

[2] = human, in vivo
[3] = design: method as in Fong et al, 1999; details: preclinical models, intracellular; ref Fong et al, 1999; cited from earlier work
[4] = Phase I safety and tolerability, twice weekly intravenous infusion
[5] = system: KIT (the receptor for stem cell factor); design: method as in Antonian et al, 2000; Smolich et al, 2001; Yee et al, 2002; details: ref Antonian et al, 2000; Smolich et al, 2001; Yee et al, 2002; cited from earlier work
[6] = mid-treatment (2 weeks), one patient, squamous cell carcinoma nasopharynx, 110 mg m^−2

## Cc1cc(C)c(/C=C2\C(=O)Nc3ccccc32)[nH]1 [SU5416, Z-3-[(2,4-dimethylpyrrol-5-yl)methylidenyl]-2-indolinone]
[1]; 48 mg m^−2
  increase in leakage space (Ve): 36.5%
[1]; final expansion cohort
  increase in leakage space (Ve): 34.5%
[1]; increase, day 1, one patient with metastatic melanoma (target lesion brain)
  change in Ktrans: 91%
[1]; [6]
  change in Ktrans: −51.9%
  change in Ve: −48.6%
[2]
  Grade II hypersensitivity reactions, patients affected: 11 patients
[3]
  time for which levels capable of target inhibition are maintained: > 48 h
[4]; dose expansion cohort
  pain or burning discomfort in tumour-related sites shortly after infusion, patients: three
[4]; therapy for 6 weeks or more, reversible over several months
  dysphonia, patients: Two
[4]; thrombosis of the inferior vena cava and a pulmonary embolism, differing dose levels
  Venous thrombotic events, patients: two
[4]; twice weekly intravenous infusion
  recommended dose for future study: 145 mg m^−2
[4]; twice weekly intravenous infusion, 48 to 190 mg m^−2
  maximum-tolerated dose: not identified
[5]
  inhibition of KIT: potent competitive inhibitor

Reference: article PMC2361651 (British Journal of Cancer, 2005)
